Measured values: article PMC9916866 (International Journal of Molecular Sciences, 2023)
Read-outs that look alike come from different tables or passages of the source. Positions of bridges follow the written chain, without caps; N, C: chain ends. Residues, ends and D or L forms follow the SMILES beside them.

Tests used:
AT1 receptor [1] = molecular target: T1, AT1 receptor (Rattus norvegicus, UniProt P25095); experiment: biochemical; type: binding; settings: read-out: inhibition of the specific labelling by Cy5-AngII, AT1
T1 sequence (P25095 whole entry, looked up): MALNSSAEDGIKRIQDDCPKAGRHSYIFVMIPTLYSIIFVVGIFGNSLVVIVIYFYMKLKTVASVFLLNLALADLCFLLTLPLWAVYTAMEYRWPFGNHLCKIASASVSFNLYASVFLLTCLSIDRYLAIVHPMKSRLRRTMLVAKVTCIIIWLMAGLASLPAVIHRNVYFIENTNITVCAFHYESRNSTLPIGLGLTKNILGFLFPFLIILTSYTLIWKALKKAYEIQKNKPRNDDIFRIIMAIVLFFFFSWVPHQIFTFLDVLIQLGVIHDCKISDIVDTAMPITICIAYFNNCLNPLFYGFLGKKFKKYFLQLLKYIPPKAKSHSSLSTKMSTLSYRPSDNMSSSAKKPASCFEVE

AT1 receptor [2] = molecular target: T2, AT1 receptor (Homo sapiens, UniProt P30556); experiment: cell-based; type: cell-based; parameters: expressed in transfected cells; host or cells: HEK293T
T2 sequence (P30556 1-359): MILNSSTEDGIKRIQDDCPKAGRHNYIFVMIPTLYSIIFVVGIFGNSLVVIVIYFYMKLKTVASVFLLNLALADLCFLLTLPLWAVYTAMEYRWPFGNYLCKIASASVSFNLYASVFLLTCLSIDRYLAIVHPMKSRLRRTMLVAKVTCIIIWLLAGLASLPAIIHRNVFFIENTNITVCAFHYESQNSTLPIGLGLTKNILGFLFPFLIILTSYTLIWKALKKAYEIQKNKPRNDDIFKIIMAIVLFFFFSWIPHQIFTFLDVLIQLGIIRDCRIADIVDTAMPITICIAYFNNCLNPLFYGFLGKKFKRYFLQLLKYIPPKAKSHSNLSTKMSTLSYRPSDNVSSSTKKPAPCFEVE

AT1 receptor [3] = molecular target: T1, AT1 receptor; experiment: cell-based; settings: read-out: inhibition of AngII-induced ERK1/2 phosphorylation (western blot)
human AT2 receptor = molecular target: T3, human AT2 receptor (Homo sapiens, UniProt P50052); experiment: biochemical; type: binding
T3 construct: expressed in transfected cells; host or cells: HEK293T
T3 sequence (P50052 1-363): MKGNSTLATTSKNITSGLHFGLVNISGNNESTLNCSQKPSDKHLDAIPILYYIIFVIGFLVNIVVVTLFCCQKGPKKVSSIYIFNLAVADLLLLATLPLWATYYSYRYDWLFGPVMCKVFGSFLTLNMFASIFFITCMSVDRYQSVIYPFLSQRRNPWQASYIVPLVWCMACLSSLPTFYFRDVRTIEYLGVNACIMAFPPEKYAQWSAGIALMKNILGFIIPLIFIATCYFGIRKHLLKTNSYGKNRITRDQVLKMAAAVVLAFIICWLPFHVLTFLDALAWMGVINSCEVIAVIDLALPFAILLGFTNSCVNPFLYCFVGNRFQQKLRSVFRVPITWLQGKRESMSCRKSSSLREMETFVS

AT1 receptor [4] = molecular target: T1, AT1 receptor; experiment: cell-based
AT1 receptor [5] = molecular target: T2, AT1 receptor; experiment: cell-based
AT1 receptor [6] = molecular target: T2, AT1 receptor; experiment: biochemical; type: binding; parameters: expressed in transfected cells; host or cells: HEK293T

SMILES: CC(C)[C@@H]1NC(=O)[C@H](Cc2c[nH]c3ccccc23)NC(=O)[C@H](Cc2ccccc2)NC(=O)[C@H](Cc2c[nH]cn2)NC(=O)[C@@H](N)CSSC[C@@H](C(=O)N2CCC[C@H]2C(=O)O)NC1=O [A-CTX-cMila] (H-CHFWVCP-OH; disulfide 1-6)
- inhibition at 100 µM (AT1 receptor [1]): 74%
- IC50 (AT1 receptor [2]): 28.5 ± 12 µM
- inhibition at 20 µM (AT1 receptor [3]): 89%
- Ki (human AT2 receptor): 27.5 ± 2.1 µM
- IC50 (AT1 receptor [4]): 23.7 ± 4.6 µM
- IC50 (AT1 receptor [5]): 15.6 ± 3 µM
- Kb (AT1 receptor [5]; KB, β-arrestin 2 recruitment): 4.1 ± 3.1 µM
- Kb (AT1 receptor [5]; pA2, β-arrestin 2 recruitment): 2 µM
- Ki (AT1 receptor [6]): 320 ± 130 nM
